SMILES strings stand for the structures.

For orientation: IC50 means the concentration at which inhibition is half-maximal. A low value points to greater potency.

The assay addresses CDK2/Cyclin E1 (Homo sapiens (Human), UniProt P24941). Nature of the assay: CDK2/Cyclin E1 HTRF Enzyme Activity Assay. The class given is biochemical. Conditions: 1 mM ATP. How it is done: Example A. CDK2/Cyclin E1 HTRF Enzyme Activity Assay
CDK2/Cyclin E1 enzyme activity assays utilize full-length human CDK2 co-expressed as N-terminal GST-tagged protein with FLAG-Cyclin E1 in a baculovirus expression system (Carna Product Number 04-165). Assays are conducted in white 384-well polystyrene plates in a final reaction volume of 8 μL. CDK2/Cyclin E1 (0.25 nM) is incubated with compounds (40 nL serially diluted in DMSO) in the presence of ATP (50 μM or 1 mM) and 50 nM ULight™-labeled eIF4E-binding protein 1 (THR37/46) peptide (PerkinElmer) in assay buffer (containing 50 mM HEPES pH 7.5, 1 mM EGTA, 10 mM MgCl2, 2 mM DTT, 0.05 mg/ml BSA, and 0.01% Tween 20) for 60 minutes at room temperature. The reactions are stopped by the addition of EDTA and Europium-labeled anti-phospho-4E-BP 1 antibody (PerkinElmer), for a final concentration of 15 mM and 1.5 nM, respectively. HTRF signals are read after 1 hour at room temperature on a PHERAstar FS plate reader (BMG Labtech). Data is analyzed with IDBS XLFit and GraphPad Prism 5.0 software using a three or four parameter dose response curve to determine IC50 for each compound.
`CCC(C(F)F)N1C(=O)C(C)(C)Cc2cnc(NC3CCN(S(C)(=O)=O)CC3)nc21` (racemic) [Example 4, 8-(1,1-difluorobutan-2-yl)-6,6-dimethyl-2-((1-(methylsulfonyl)piperidin-4-yl)amino)-5,8-dihydropyrido[2,3-d]pyrimidin-7(6H)-one] returned an IC50 of 10 to 100 nM.
Under `CC1(C)Cc2cnc(NC3CCN(S(C)(=O)=O)CC3)nc2N(C2CCOC2)C1=O` (racemic) [Example 6, 6,6-dimethyl-2-((1-(methylsulfonyl)piperidin-4-yl)amino)-8-(tetrahydrofuran-3-yl)-5,8-dihydropyrido[2,3-d]pyrimidin-7(6H)-one] stands 100 to 500 nM.
In the case of `CC1(C)Cc2cnc(Nc3ccc(S(N)(=O)=O)cc3)nc2N(C2CCCC2)C1=O` [Example 1, 4-((8-cyclopentyl-6,6-dimethyl-7-oxo-5,6,7,8-tetrahydropyrido[2,3-d]pyrimidin-2-yl)amino)benzenesulfonamide] it was at most 10 nM; in that of `CC1(C)Cc2cnc(NC3CCN(S(C)(=O)=O)CC3)nc2N(C2CCCC2)C1=O` [Example 2, 8-cyclopentyl-6,6-dimethyl-2-((1-(methylsulfonyl)piperidin-4-yl)amino)-5,8-dihydropyrido[2,3-d]pyrimidin-7(6H)-one], at most 10 nM.
For the compound `CC1(C)Cc2cnc(NC3CCN(S(C)(=O)=O)CC3)nc2N(c2ccccc2)C1=O` [Example 3, 6,6-dimethyl-2-((1-(methylsulfonyl)piperidin-4-yl)amino)-8-phenyl-5,8-dihydropyrido[2,3-d]pyrimidin-7(6H)-one], the IC50 is 100 to 500 nM.
As for `Cn1nccc1CN1C(=O)C(C)(C)Cc2cnc(NC3CCN(S(C)(=O)=O)CC3)nc21` [Example 5, 6,6-dimethyl-8-((1-methyl-1H-pyrazol-5-yl)methyl)-2-((1-(methylsulfonyl)piperidin-4-yl)amino)-5,8-dihydropyrido[2,3-d]pyrimidin-7(6H)-one], the IC50 was 100 to 500 nM.

These data come from US11066404B2, “Dihydropyrido[2,3-d]pyrimidinone compounds as CDK2 inhibitors” (Incyte Corporation, priority 2018, dated 2021).
